Test results from ChEMBL document CHEMBL5154749 (Eur J Med Chem, 2022).
Activity calls are given as the source filed them. The calls are words filed in the database; no cut-off is given here.

Legend:
LoVo [1] = assay: Induction of apoptosis in human LoVo cells deficient in ATM assessed as necrotic cells at 3 uM measured after 24 hrs by Annexin V-FITC/Propidium iodide staining based flow cytometry analysis (reference value: 0.84%); assay type: functional
HT-29 [2] = assay: Induction of apoptosis in human HT-29 cells assessed as necrotic cells at 1 uM measured after 48 hrs in presence of AZD1390 by Annexin V-FITC/Propidium iodide staining based flow cytometry analysis (reference value: 0.23%); assay type: functional
OVCAR-3 = assay: Antiproliferative activity against ATM-deficient human OVCAR-3 cells assessed as reduction in cell viability incubated for 72 hrs by MTT assay; assay type: functional, cell-based; settings: dose 0.001-100 µM, DDE = dose-dependent effect
[3] = Toxicity in NOD/SCID mouse xenografted with human LoVo cells assessed as damage in spleen at 50 to 100 mg/kg, po administered bid for 30 days measured after 2 hrs post last dose by H and E staining method; assay type: organism-based; settings: in vivo, 720 h, dose 50-100 mg/kg, time 30 day
HT-29 [4] = assay: Induction of apoptosis in human HT-29 cells assessed as viable cells at 0.3 uM measured after 48 hrs by Annexin V-FITC/Propidium iodide staining based flow cytometry analysis (reference value: 97.01%); assay type: functional; settings: read-out: Activity
[5] = biological target: T1, Serine/threonine-protein kinase ATR (Homo sapiens, UniProt Q13535); assay: In vivo inhibition of ATR in human LoVo cells xenografted in NOD/SCID mouse assessed as inhibition of Chk1 phosphorylation at 50 to 100 mg/kg, po administered twice a day for 30 days by Western blot analysis; settings: dose 50-100 mg/kg, time 30.0 day
T1 sequence (Q13535 whole entry, looked up): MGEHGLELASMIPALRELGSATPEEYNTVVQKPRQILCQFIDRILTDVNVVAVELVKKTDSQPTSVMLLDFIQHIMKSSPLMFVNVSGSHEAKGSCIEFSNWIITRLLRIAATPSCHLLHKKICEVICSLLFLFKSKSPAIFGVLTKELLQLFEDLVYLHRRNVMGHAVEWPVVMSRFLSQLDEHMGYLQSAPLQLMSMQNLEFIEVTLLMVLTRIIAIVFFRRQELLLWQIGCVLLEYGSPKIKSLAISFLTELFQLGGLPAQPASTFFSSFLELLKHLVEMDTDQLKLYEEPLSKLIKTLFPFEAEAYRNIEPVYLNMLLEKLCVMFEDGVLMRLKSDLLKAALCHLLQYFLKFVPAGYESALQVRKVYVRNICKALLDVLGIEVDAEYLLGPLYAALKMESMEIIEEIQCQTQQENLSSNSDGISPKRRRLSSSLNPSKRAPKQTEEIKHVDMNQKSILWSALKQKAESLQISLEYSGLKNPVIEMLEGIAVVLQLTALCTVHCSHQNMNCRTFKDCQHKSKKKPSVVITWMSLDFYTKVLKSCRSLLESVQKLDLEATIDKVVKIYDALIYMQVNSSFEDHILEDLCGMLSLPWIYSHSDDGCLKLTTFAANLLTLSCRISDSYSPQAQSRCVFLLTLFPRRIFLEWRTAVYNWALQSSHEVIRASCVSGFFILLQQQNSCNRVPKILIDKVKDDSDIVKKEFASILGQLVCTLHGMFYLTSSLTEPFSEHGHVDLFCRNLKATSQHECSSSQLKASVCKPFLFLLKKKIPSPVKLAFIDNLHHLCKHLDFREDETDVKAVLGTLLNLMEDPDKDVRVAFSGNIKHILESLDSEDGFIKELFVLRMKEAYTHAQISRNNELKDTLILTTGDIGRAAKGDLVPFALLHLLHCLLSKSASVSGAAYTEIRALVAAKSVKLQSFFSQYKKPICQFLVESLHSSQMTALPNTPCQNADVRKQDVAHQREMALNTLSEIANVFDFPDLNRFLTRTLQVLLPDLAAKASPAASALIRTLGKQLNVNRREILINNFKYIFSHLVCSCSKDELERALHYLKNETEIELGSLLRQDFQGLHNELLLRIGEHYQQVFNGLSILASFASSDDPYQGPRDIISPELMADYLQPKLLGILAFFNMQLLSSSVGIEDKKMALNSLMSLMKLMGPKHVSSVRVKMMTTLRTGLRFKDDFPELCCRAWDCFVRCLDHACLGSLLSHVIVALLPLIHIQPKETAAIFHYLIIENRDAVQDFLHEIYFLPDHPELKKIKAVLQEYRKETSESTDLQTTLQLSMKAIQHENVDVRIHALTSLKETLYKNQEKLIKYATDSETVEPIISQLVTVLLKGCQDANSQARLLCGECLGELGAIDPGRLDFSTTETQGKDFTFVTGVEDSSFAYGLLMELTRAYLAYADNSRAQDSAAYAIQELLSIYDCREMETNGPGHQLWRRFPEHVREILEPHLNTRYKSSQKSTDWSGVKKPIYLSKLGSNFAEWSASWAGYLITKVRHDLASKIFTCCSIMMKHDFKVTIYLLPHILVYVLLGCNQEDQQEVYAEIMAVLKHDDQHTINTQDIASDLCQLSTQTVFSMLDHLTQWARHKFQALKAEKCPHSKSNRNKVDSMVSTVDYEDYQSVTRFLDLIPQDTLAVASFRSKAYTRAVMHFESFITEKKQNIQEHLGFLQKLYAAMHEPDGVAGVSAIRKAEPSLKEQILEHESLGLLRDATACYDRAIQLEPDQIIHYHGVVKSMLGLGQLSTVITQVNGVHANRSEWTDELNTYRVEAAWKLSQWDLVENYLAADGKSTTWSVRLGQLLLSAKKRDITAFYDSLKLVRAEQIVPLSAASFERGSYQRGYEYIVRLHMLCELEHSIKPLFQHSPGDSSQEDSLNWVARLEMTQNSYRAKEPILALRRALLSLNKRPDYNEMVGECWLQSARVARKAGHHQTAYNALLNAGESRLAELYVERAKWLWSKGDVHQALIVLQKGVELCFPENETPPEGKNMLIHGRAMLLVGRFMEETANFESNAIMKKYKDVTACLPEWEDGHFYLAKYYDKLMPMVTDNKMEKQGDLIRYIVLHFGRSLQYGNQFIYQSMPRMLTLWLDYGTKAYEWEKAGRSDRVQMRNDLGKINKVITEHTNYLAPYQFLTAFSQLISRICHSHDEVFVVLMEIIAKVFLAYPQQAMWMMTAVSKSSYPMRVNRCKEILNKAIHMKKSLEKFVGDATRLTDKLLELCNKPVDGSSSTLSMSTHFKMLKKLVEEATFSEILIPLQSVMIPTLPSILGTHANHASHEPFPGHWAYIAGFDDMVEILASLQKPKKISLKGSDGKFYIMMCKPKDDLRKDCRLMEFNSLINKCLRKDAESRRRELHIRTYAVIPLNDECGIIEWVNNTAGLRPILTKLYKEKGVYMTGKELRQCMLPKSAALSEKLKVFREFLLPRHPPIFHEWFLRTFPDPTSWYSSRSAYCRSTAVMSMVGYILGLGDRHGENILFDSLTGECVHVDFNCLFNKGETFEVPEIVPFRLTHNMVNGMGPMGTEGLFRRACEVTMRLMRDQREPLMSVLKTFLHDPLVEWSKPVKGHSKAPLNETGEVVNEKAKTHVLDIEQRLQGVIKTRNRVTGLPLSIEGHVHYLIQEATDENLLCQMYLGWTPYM

HepG2 = assay: Antiproliferative activity against ATM proficient human HepG2 cells assessed as reduction in cell viability incubated for 72 hrs by MTT assay; assay type: functional, cell-based; settings: dose 0.001-100 µM, DDE = dose-dependent effect
HT-29 [6] = assay: Induction of apoptosis in human HT-29 cells assessed as early apoptotic cells at 3 uM measured after 48 hrs by Annexin V-FITC/Propidium iodide staining based flow cytometry analysis (reference value: 1.55%); assay type: functional
HT-29 [7] = assay: Induction of apoptosis in human HT-29 cells assessed as early apoptotic cells at 0.3 uM measured after 48 hrs by Annexin V-FITC/Propidium iodide staining based flow cytometry analysis (reference value: 1.55%); assay type: functional
[8] = Half life in Sprague-Dawley rat at 5 mg/kg, iv measured at 0.083 to 24 hrs by LC-MS/MS method; assay type: ADME, organism-based; settings: in vivo, time 0.083-24 hrs
[9] = biological target: T1, Serine/threonine-protein kinase ATR; assay: Inhibition of ATR signalling in ATM-deficient human LoVo cells assessed as inhibition of Chk1 phosphorylation incubated for 1 hr followed by hydroxyurea addition measured after 4 hrs by Western blot analysis; assay type: cell-based; settings: dose <= 3.0 µM, time 5.0 hrs, DDE = dose-dependent effect
LoVo [10] = assay: Antimigratory activity in human LoVo cells assessed as suppression of cell migration measured up to 48 hrs by wound healing assay; assay type: functional, cell-based; settings: dose <= 1.0 µM, DDE = dose-dependent effect
HT-29 [11] = assay: Induction of apoptosis in human HT-29 cells assessed as viable cells at 0.3 uM measured after 48 hrs in presence of AZD1390 by Annexin V-FITC/Propidium iodide staining based flow cytometry analysis (reference value: 95.33%); assay type: functional; settings: read-out: Activity
LoVo [12] = assay: Induction of apoptosis in human LoVo cells deficient in ATM assessed as necrotic cells at 0.3 uM measured after 24 hrs by Annexin V-FITC/Propidium iodide staining based flow cytometry analysis (reference value: 0.84%); assay type: functional
LoVo [13] = assay: Antitumor activity against human LoVo cells xenografted in NOD/SCID mouse assessed as tumor growth inhibition at 50 mg/kg, po BID for 30 days measured every 2 to 3 days; assay type: functional; settings: 720 h, time 30 day, read-out: TGI
[14] = biological target: T1, Serine/threonine-protein kinase ATR; assay: Inhibition of ATR signalling in ATM-deficient human LoVo cells assessed as inhibition of ATR phosphorylation incubated for 1 hr followed by hydroxyurea addition measured after 4 hrs by Western blot analysis; assay type: cell-based; settings: dose <= 3.0 µM, time 5.0 hrs, DDE = dose-dependent effect
HT-29 [15] = assay: Induction of apoptosis in human HT-29 cells assessed as viable cells at 1 uM measured after 48 hrs by Annexin V-FITC/Propidium iodide staining based flow cytometry analysis (reference value: 97.01%); assay type: functional; settings: read-out: Activity
HT-29 [16] = assay: Induction of apoptosis in human HT-29 cells assessed as necrotic cells at 1 uM measured after 48 hrs by Annexin V-FITC/Propidium iodide staining based flow cytometry analysis (reference value: 0.73%); assay type: functional
HT-29 [17] = assay: Induction of apoptosis in human HT-29 cells assessed as late apoptotic cells at 0.3 uM measured after 48 hrs by Annexin V-FITC/Propidium iodide staining based FACS cytometry analysis (reference value: 0.71%); assay type: functional

Activity [5]: Active
half-life [8]: 1.37 h
inhibition [9]: Dde
inhibition [14]: Dde
SMILES: C[C@@H]1COCCN1c1nc(-c2cccc3[nH]ccc23)nc2ccc(-c3ccnn3C)cc12
Activity (LoVo [1]): 3.01%
Activity (HT-29 [2]): 2.1%
Activity (OVCAR-3): Dde
Activity [3]: Non-Toxic
viability at 0.3 µM (HT-29 [4]): 95.4%
Activity (HepG2): Dde
Activity (HT-29 [6]): 2.64%
Activity (HT-29 [7]): 1.47%
Activity (LoVo [10]): Dde
viability at 0.3 µM (HT-29 [11]): 79%
Activity (LoVo [12]): 2.71%
inhibition in vivo at 50 mg/kg (LoVo [13]): 50%
viability at 1 µM (HT-29 [15]): 94.7%
Activity (HT-29 [16]): 1.06%
Activity (HT-29 [17]): 1.51%
